In this assay the target is T1, βARR1 coupling to pβ2V2R (Rattus norvegicus, UniProt P29066).
T1 construct: βARR1 or βARR2 construct, with their C terminus truncated (at amino acid 393 or 394, respectively); GST (pGEX4T1) (N, cleaved yes); made in house; host or cells: βARR1: E. coli BL21 (DE3) pLysS; receptor: Sf9 membranes, co-expressed with GRK2–CAAX
Briefly: [3H]-Fen high-affinity agonist binding promoted by βARR1 at pβ2V2R. The note with it: βARR1 2 μM, [3H]-Fen 6 nM, read-out: inhibition of βARR1-mediated stabilization of the high-affinity β2V2R state. The assay is classed as biochemical. The procedure:
The N-terminal Flag-tagged T4 lysozyme fusion-β2V2R construct (β2AR residues 1–341 fused to V2R residues 328–372), bearing a TEV cleavage site, was co-expressed with GRK2–CAAX (membrane-anchored GRK2) or wild-type β2AR in Sf9 insect cells using the Baculovirus Expression System, as described previously[44],[62],[63],[68],[69]. At 66 h after infection, cells expressing T4L–β2V2R were stimulated with 20 μM isoproterenol for 20 min at 37 °C to induce receptor phosphorylation (pβ2V2R), while β2AR-expressing cells remained untreated. All cells were washed extensively to remove residual agonist. For membrane preparation from these cells, briefly, cells were resuspended in cold homogenization buffer (75 mM Tris-HCl, pH 7.4, 2 mM EDTA, and cOmplete protease inhibitor) and collected by centrifugation at 500g for 5 min at 4 °C. […]
To assess the effects of β-arrestin modulators on β-arrestin- or Gαs–βγ-promoted high-affinity agonist binding, [^3H]-Fen binding assays were performed using membranes from Sf9 cells expressing phosphorylated β2V2R (pβ2V2R) or β2AR[28]. […] Bound [^3H]-Fen was extracted overnight in scintillation fluid and quantified by scintillation counting. Specific binding was calculated by subtracting nonspecific from total binding.

Each structure is given as a SMILES string.

This passage reports inhibition results from PMC13489962, “Small-molecule modulation of β-arrestins” (Nature, 2026).

T1 sequence (P29066 1-393): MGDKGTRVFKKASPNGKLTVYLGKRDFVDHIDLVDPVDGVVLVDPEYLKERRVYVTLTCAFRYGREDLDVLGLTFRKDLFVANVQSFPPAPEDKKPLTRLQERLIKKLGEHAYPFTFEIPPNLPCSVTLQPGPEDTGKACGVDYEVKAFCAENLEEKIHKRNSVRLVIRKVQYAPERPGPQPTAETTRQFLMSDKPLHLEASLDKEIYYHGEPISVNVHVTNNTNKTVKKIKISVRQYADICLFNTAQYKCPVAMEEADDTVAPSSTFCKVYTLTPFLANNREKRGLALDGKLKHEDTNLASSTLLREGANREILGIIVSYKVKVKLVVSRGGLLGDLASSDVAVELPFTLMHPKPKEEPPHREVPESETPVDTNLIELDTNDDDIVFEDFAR

With `C=C1C(=O)[C@]23[C@H](O)[C@H]1CC[C@H]2[C@@]12CO[C@]3(O)[C@@H](O)[C@@H]1C(C)(C)CC[C@@H]2O` [Cmpd-5, (1S,4aR,5S,6S,6aR,9S,11aS,11bS,14R)-1,5,6,14-tetrahydroxy−4,4-dimethyl-8-methylenedecahydro-1H-6,11b-(epoxymethano)-6a,9-methanocyclohepta[a]naphthalen-7(8H)-one], the inhibition at 100 µM was approximately 40%.
